Test results as given in article PMC12888861, “Antibacterial activity of enmetazobactam against Acinetobacter spp.: a molecular dissection of mechanism of action and resistance determinants” (Antimicrobial Agents and Chemotherapy, 2025).
Values after ≈ are worked out from the molar mass of the structure shown. Like-named read-outs stand apart in the source and are kept apart here.

Test system: A. non-baumannii isolates (n = 87)
Assay: MIC, broth microdilution (EUCAST), A. non-baumannii isolates
Format: cell-based, Acinetobacter spp. (non-baumannii)
Settings: for MIC: read-out: MIC
Excerpt: The bacterial strains used in this study comprised 208 clinical isolates from the Spanish National Acinetobacter spp. 2020 Multicenter Collection, which was previously characterized in detail by our research group, including whole-genome sequencing, phylogenetics studies, clonal dynamics, and resistance mechanisms ([2], [29]). Additionally, a collection of A. baumannii ATCC 17978 transformants coding the blaOXA-23, blaOXA-24/40, blaOXA-51, blaOXA-58, blaOXA-143, and blaOXA-201 genes, previously constructed and described by our group ([30]), was used to determine the activity of enmetazobactam against strains carrying the main CHDLs of A. baumannii.
The antimicrobial susceptibility of the 208 Acinetobacter spp. isolates was assessed using the broth microdilution method, as described in the European Committee on Antimicrobial Susceptibility Testing (EUCAST) v.15 guidelines (http://www.eucast.org/clinical_breakpoints). […] MICs for enmetazobactam alone were assessed as well. […] Subsequently, MIC testing was also conducted with a collection of A. baumannii ATCC 17978 transformants expressing clinically relevant OXA-like carbapenemase genes.
The A. baumannii ATCC 19606 strain was used as the reference strain in all susceptibility experiments, in duplicate assays. Antibiotics were purchased from Sigma-Aldrich, except enmetazobactam and durlobactam, which were obtained from Advanz Pharma and MedChemExpress, respectively.

[1] = Acinetobacter, A. non-baumannii isolates (n=87), ETZ fixed 8 mg/L in combinations

C[n+]1ccn(C[C@@]2(C)[C@H](C(=O)[O-])N3C(=O)C[C@H]3S2(=O)=O)n1 [enmetazobactam]
MIC (Acinetobacter pittii, isolate NO-Ab90, Acinetobacter pittii, in combinations ETZ fixed at 8 mg/L): 2 µg/mL | MIC (Acinetobacter pittii, isolate NO-Ab97, Acinetobacter pittii, in combinations ETZ fixed at 8 mg/L): 2 µg/mL | MIC (Acinetobacter pittii, isolate NO-Ab105, Acinetobacter pittii, in combinations ETZ fixed at 8 mg/L): 2 µg/mL | MIC (Acinetobacter pittii, isolate NO-Ab106, Acinetobacter pittii, in combinations ETZ fixed at 8 mg/L): 2 µg/mL | MIC (Acinetobacter pittii, isolate NO-Ab107, Acinetobacter pittii, in combinations ETZ fixed at 8 mg/L): 1 µg/mL | MIC (Acinetobacter pittii, isolate NO-Ab111, Acinetobacter pittii, in combinations ETZ fixed at 8 mg/L): 2 µg/mL | MIC (Acinetobacter pittii, isolate NO-Ab113, Acinetobacter pittii, in combinations ETZ fixed at 8 mg/L): 2 µg/mL | MIC (Acinetobacter pittii, isolate NO-Ab118, Acinetobacter pittii, in combinations ETZ fixed at 8 mg/L): 2 µg/mL | MIC (Acinetobacter pittii, isolate NO-Ab135, Acinetobacter pittii, in combinations ETZ fixed at 8 mg/L): 2 µg/mL | MIC (Acinetobacter pittii, isolate NO-Ab145, Acinetobacter pittii, in combinations ETZ fixed at 8 mg/L): 2 µg/mL | MIC (Acinetobacter pittii, isolate NO-Ab151, Acinetobacter pittii, in combinations ETZ fixed at 8 mg/L): 4 µg/mL | MIC (Acinetobacter pittii, isolate NO-Ab154, Acinetobacter pittii, in combinations ETZ fixed at 8 mg/L): 2 µg/mL | MIC (Acinetobacter pittii, isolate NO-Ab157, Acinetobacter pittii, in combinations ETZ fixed at 8 mg/L): 4 µg/mL | MIC (Acinetobacter pittii, isolate NO-Ab162, Acinetobacter pittii, in combinations ETZ fixed at 8 mg/L): 4 µg/mL | MIC (Acinetobacter pittii, isolate NO-Ab164, Acinetobacter pittii, in combinations ETZ fixed at 8 mg/L): 2 µg/mL | MIC (Acinetobacter pittii, isolate NO-Ab178, Acinetobacter pittii, in combinations ETZ fixed at 8 mg/L): 2 µg/mL | MIC (Acinetobacter pittii, isolate NO-Ab197, Acinetobacter pittii, in combinations ETZ fixed at 8 mg/L): 2 µg/mL | MIC (Acinetobacter proteolyticus, isolate NO-Ab99, Acinetobacter proteolyticus, in combinations ETZ fixed at 8 mg/L): 2 µg/mL | MIC (Acinetobacter proteolyticus, isolate NO-Ab102, Acinetobacter proteolyticus, in combinations ETZ fixed at 8 mg/L): 4 µg/mL | MIC (Acinetobacter proteolyticus, isolate NO-Ab210, Acinetobacter proteolyticus, in combinations ETZ fixed at 8 mg/L): 1 µg/mL | MIC (Acinetobacter radioresistens, isolate NO-Ab175, Acinetobacter radioresistens, in combinations ETZ fixed at 8 mg/L): 1 µg/mL | MIC (Acinetobacter radioresistens, isolate NO-Ab215, Acinetobacter radioresistens, in combinations ETZ fixed at 8 mg/L): 0.5 µg/mL | MIC (Acinetobacter ursingii, isolate NO-Ab3, Acinetobacter ursingii, in combinations ETZ fixed at 8 mg/L): 0.25 µg/mL | MIC (Acinetobacter ursingii, isolate NO-Ab64, Acinetobacter ursingii, in combinations ETZ fixed at 8 mg/L): 1 µg/mL | MIC (Acinetobacter ursingii, isolate NO-Ab87, Acinetobacter ursingii, in combinations ETZ fixed at 8 mg/L): 0.5 µg/mL | MIC (Acinetobacter ursingii, isolate NO-Ab103, Acinetobacter ursingii, in combinations ETZ fixed at 8 mg/L): 0.5 µg/mL | MIC (Acinetobacter ursingii, isolate NO-Ab119, Acinetobacter ursingii, in combinations ETZ fixed at 8 mg/L): 8 µg/mL | MIC (Acinetobacter ursingii, isolate NO-Ab120, Acinetobacter ursingii, in combinations ETZ fixed at 8 mg/L): 1 µg/mL | MIC (Acinetobacter ursingii, isolate NO-Ab123, Acinetobacter ursingii, in combinations ETZ fixed at 8 mg/L): 2 µg/mL | MIC (Acinetobacter ursingii, isolate NO-Ab126, Acinetobacter ursingii, in combinations ETZ fixed at 8 mg/L): 0.5 µg/mL | MIC (Acinetobacter ursingii, isolate NO-Ab147, Acinetobacter ursingii, in combinations ETZ fixed at 8 mg/L): 4 µg/mL | MIC (Acinetobacter ursingii, isolate NO-Ab155, Acinetobacter ursingii, in combinations ETZ fixed at 8 mg/L): 4 µg/mL | MIC (Acinetobacter ursingii, isolate NO-Ab165, Acinetobacter ursingii, in combinations ETZ fixed at 8 mg/L): 2 µg/mL | MIC (Acinetobacter ursingii, isolate NO-Ab166, Acinetobacter ursingii, in combinations ETZ fixed at 8 mg/L): 0.5 µg/mL | MIC (Acinetobacter ursingii, isolate NO-Ab214, Acinetobacter ursingii, in combinations ETZ fixed at 8 mg/L): 0.5 µg/mL | MIC (Acinetobacter ursingii, isolate NO-Ab221, Acinetobacter ursingii, in combinations ETZ fixed at 8 mg/L): 1 µg/mL | MIC (Acinetobacter ursingii, isolate NO-Ab222, Acinetobacter ursingii, in combinations ETZ fixed at 8 mg/L): 1 µg/mL | MIC (Acinetobacter, MBC set, isolate NO-Ab84, A. bereziniae): 1 µg/mL (≈ 3.18 µM) | MIC (Acinetobacter, MBC set, isolate NO-Ab88, A. dijkshoorniae): 2 µg/mL (≈ 6.36 µM) | MIC (Acinetobacter, isolate NO-Ab146, Acinetobacter iwoffii, in combinations ETZ fixed at 8 mg/L): 4 µg/mL | MIC (Acinetobacter, isolate NO-Ab159, Acinetobacter iwoffii, in combinations ETZ fixed at 8 mg/L): 2 µg/mL | MIC50 [1]: 2 µg/mL | MIC90 [1]: 4 µg/mL | MIC distribution 0.25 (cumulative share of A. non-baumannii isolates (n=87) at MIC 0.25 mg/L, ETZ fixed 8 mg/L in combinations): 1.1 | MIC distribution 0.5 (cumulative share of A. non-baumannii isolates (n=87) at MIC 0.5 mg/L, ETZ fixed 8 mg/L in combinations): 9.2 | MIC distribution 1 (cumulative share of A. non-baumannii isolates (n=87) at MIC 1 mg/L, ETZ fixed 8 mg/L in combinations): 29.9 | MIC distribution 2 (cumulative share of A. non-baumannii isolates (n=87) at MIC 2 mg/L, ETZ fixed 8 mg/L in combinations): 75.9 | MIC distribution 4 (cumulative share of A. non-baumannii isolates (n=87) at MIC 4 mg/L, ETZ fixed 8 mg/L in combinations): 96.6 | MIC distribution 8 (cumulative share of A. non-baumannii isolates (n=87) at MIC 8 mg/L, ETZ fixed 8 mg/L in combinations): 98.9 | MIC distribution 16 (cumulative share of A. non-baumannii isolates (n=87) at MIC 16 mg/L, ETZ fixed 8 mg/L in combinations): 100 | MIC distribution 32 (cumulative share of A. non-baumannii isolates (n=87) at MIC 32 mg/L, ETZ fixed 8 mg/L in combinations): 100 | MIC distribution ≤0.06 (cumulative share of A. non-baumannii isolates (n=87) at MIC ≤0.06 mg/L, ETZ fixed 8 mg/L in combinations): 0
